Test results reported in patent US9840478B2 (MERCK SHARP & DOHME CORP., priority 2013, dated 2017).

Each compound was assayed on HIV-1 (H9IIIB strain) (assay: Cell-based HIV infection assay using a reporter (Cell-Based), MT4-GFP cells). Conditions: Human immunodeficiency virus 1, MT4-GFP cells infected with HIV-1 H9IIIB; 50% normal human serum; mean of at least two independent experiments; read-out: Cell-based IP.
Method: Cell-Based HIV Infection Assay Using a Reporter (“Cell-Based”):
MT4-GFP cells contain a stably integrated HIV long terminal repeat promoter directing the transcription of green fluorescent protein (GFP). When HIV infects the cell, GFP is produced and the cell becomes green. MT4-GFP cells (250,000 cells/ml) were bulk-infected with HIV-1 (H9IIIB strain) at low multiplicity of infection (MOI) in RPMI media, supplemented with 10% FBS for 24 hours. Cells were then washed once in RPMI plus 10% FBS and resuspended in RPMI plus 50% normal human serum (NHS). Test compounds were serial-diluted in DMSO using an ECHO liquid dispenser. A control well included a combination of three HIV drugs (an inhibitor of HIV protease, integrase strand transfer and a non-nucleoside reverse transcriptase inhibitor; triple drug). The infected MT4-GFP cells were added to a 384-well poly-D-lysine coated black plate with clear bottom in which the diluted test compounds were placed. The cells were seeded in the plate at 8,000 cells per well and the final DMSO concentration was 0.4%. Infected cells were quantified at both 24 and 48 hours post incubation using an Acumen eX3 plate reader. Viral reproductive ratio (R0) was determined using the number of infected cells at 48 hours divided by the number of infected cells at 24 hours. Percent viral growth inhibition was calculated by [1−(R−Rtripledrug)/(RDMSO−Rtripledrug)]*100. Compound potency IP or IC50 was determined with use of a 4-parameter dose response curve analysis.

Compound | IC50
N[C@H](C(=O)Nc1cccc(F)c1CC[C@H]1CNCCN1S(=O)(=O)c1ccccc1)[C@@H](c1ccc(Cl)c(F)c1)C1CCOCC1 [Example 37, (βR)-4-chloro-3-fluoro-N-(3-fluoro-2-{2-[(2S)-1-(phenylsulfonyl)piperazin-2-yl]ethyl}phenyl)-β-(tetrahydro-2H-pyran-4-yl)-L-phenylalaninamide] | 46 nM
N[C@H](C(=O)Nc1cccc(F)c1CC[C@@H]1CNCCN1S(=O)(=O)c1ccccc1)[C@@H](c1ccc(Cl)c(F)c1)C1CCOCC1 [Example 38, (βR)-4-chloro-3-fluoro-N-(3-fluoro-2-{2-[(2R)-1-(phenylsulfonyl)piperazin-2-yl]ethyl}phenyl)-β-(tetrahydro-2H-pyran-4-yl)-L-phenylalaninamide] | 890 nM
N[C@H](C(=O)Nc1cccc(F)c1CC[C@H]1CNCCN1S(=O)(=O)c1ccccc1)[C@@H](c1ccc(Cl)cc1)c1cccc(F)c1 [Example 39, (βS)-4-chloro-β-(3-fluorophenyl)-N-(3-fluoro-2-{2-[(2S)-1-(phenylsulfonyl)piperazin-2-yl]ethyl}phenyl)-L-phenylalaninamide] | 12 nM
N[C@H](C(=O)Nc1cccc(F)c1CC[C@H]1CNCCN1S(=O)(=O)c1ccccc1)[C@@H](c1ccc(Cl)cc1)C1CCS(=O)(=O)CC1 [Example 41, (βR)-4-chloro-β-(1,1-dioxidotetrahydro-2H-thiopyran-4-yl)-N-(3-fluoro-2-{2-[(2S)-1-(phenylsulfonyl)piperazin-2-yl]ethyl}phenyl)-L-phenylalaninamide] | 34 nM
N[C@H](C(=O)Nc1cccc(F)c1CC[C@H]1CNCCN1S(=O)(=O)c1ccccc1)[C@@H](c1ccc(Cl)cc1)c1cccc(OC(F)(F)F)c1 [Example 42, (βS)-4-chloro-N-(3-fluoro-2-{2-[(2S)-1-(phenylsulfonyl)piperazin-2-yl]ethyl}phenyl)-β-[3-(trifluoromethoxy)phenyl]-L-phenylalaninamide] | 60 nM
N[C@H](C(=O)Nc1cccc(F)c1CC[C@H]1CNCCN1S(=O)(=O)c1ccccc1)[C@@H](c1ccc(Cl)cc1)c1cc(F)cc(F)c1 [Example 43, (βS)-4-chloro-β-(3,5-difluorophenyl)-N-(3-fluoro-2-{2-[(2S)-1-(phenylsulfonyl)piperazin-2-yl]ethyl}phenyl)-L-phenylalaninamide] | 12 nM
N[C@H](C(=O)Nc1cccc(F)c1CC[C@H]1CNCCN1S(=O)(=O)c1ccccc1)[C@@H](c1ccc(Cl)cc1)c1cncc(F)c1 [Example 44, (βS)-4-chloro-N-(3-fluoro-2-{2-[(2S)-1-(phenylsulfonyl)piperazin-2-yl]ethyl}phenyl)-β-(5-fluoropyridin-3-yl)-L-phenylalaninamide] | 15 nM
N[C@H](C(=O)Nc1cncc(F)c1CC[C@H]1CNCCN1S(=O)(=O)c1ccccc1)[C@@H](c1ccc(Cl)cc1)c1cccc(OC(F)(F)F)c1 [Example 45, (βS)-4-chloro-N-(5-fluoro-4-{2-[(2S)-1-(phenylsulfonyl)piperazin-2-yl]ethyl}pyridin-3-yl)-β-[3-(trifluoromethoxy)phenyl]-L-phenylalaninamide] | 16 nM
N[C@H](C(=O)Nc1cncc(F)c1CC[C@H]1CNCCN1S(=O)(=O)c1ccccc1)[C@@H](c1ccc(Cl)cc1)c1cc(F)cc(F)c1 [Example 46, (βS)-4-chloro-β-(3,5-difluorophenyl)-N-(5-fluoro-4-{2-[(2S)-1-(phenylsulfonyl)piperazin-2-yl]ethyl}pyridin-3-yl)-L-phenylalaninamide] | 12 nM
N[C@@H](Cc1ccc(F)cc1)C(=O)Nc1cncc(F)c1CC[C@H]1CNCCN1S(=O)(=O)C1CC1 [Example 47, N-(4-{2-[(2S)-1-(cyclopropylsulfonyl)piperazin-2-yl]ethyl}-5-fluoropyridin-3-yl)-4-fluoro-L-phenylalaninamide] | 1200 nM
COC(=O)N[C@H](C(=O)Nc1cncc(F)c1CC[C@H]1CNCCN1S(C)(=O)=O)[C@@H](c1ccc(F)cc1)c1cc(F)cc(F)c1 [Example 48, methyl ((1S,2S)-1-(3,5-difluorophenyl)-3-((5-fluoro-4-(2-((S)-1-(methylsulfonyl)piperazin-2-yl)ethyl)pyridin-3-yl)amino)-1-(4-fluorophenyl)-3-oxopropan-2-yl)carbamate] | 66 nM
COC(=O)N[C@H](C(=O)Nc1cncc(F)c1CC[C@@H]1CNCCN1S(C)(=O)=O)[C@@H](c1ccc(F)cc1)c1cc(F)cc(F)c1 [Example 49, methyl ((1S,2S)-1-(3,5-difluorophenyl)-3-((5-fluoro-4-(2-((R)-1-(methylsulfonyl)piperazin-2-yl)ethyl)pyridin-3-yl)amino)-1-(4-fluorophenyl)-3-oxopropan-2-yl)carbamate] | 1700 nM
COC(=O)N[C@H](C(=O)Nc1cncc(F)c1CC[C@H]1CNCCN1S(=O)(=O)C1CC1)[C@@H](c1ccc(F)cc1)c1cc(F)cc(F)c1 [Example 50, (βS)-N-(4-{2-[(2S)-1-(cyclopropylsulfonyl)piperazin-2-yl]ethyl}-5-fluoropyridin-3-yl)-3,5-difluoro-β-(4-fluorophenyl)-Nα-(methoxycarbonyl)-L-phenylalaninamide] | 21 nM
COC(=O)N[C@H](C(=O)Nc1cccc(F)c1CC[C@H]1CNCCN1S(=O)(=O)c1ccccc1)C(c1cc(F)cc(F)c1)c1cc(F)cc(F)c1 [Example 51, β-(3,5-difluorophenyl)-3,5-difluoro-N-(3-fluoro-2-{2-[(2S)-1-(phenylsulfonyl)piperazin-2yl]ethyl}phenyl)-Nα-(methoxycarbonyl)-L-phenylalaninamide] | 11 nM
COC(=O)N[C@H](C(=O)Nc1cccc(F)c1CC[C@H]1CNCCN1S(=O)(=O)c1ccccc1)[C@@H](c1ccc(Cl)cc1)c1cccc(F)c1 [Example 52, (βS)-4-chloro-β-(3-fluorophenyl)-N-(3-fluoro-2-{2-[(2S)-1-(phenylsulfonyl)piperazin-2-yl]ethyl}phenyl)-Nα-(methoxycarbonyl)-L-phenylalaninamide] | 9.2 nM
COC(=O)N[C@H](C(=O)Nc1cncc(F)c1CC[C@H]1CNCCN1S(=O)(=O)c1ccccc1)[C@@H](c1ccc(Cl)cc1)c1cccc(F)c1 [Example 53, (βS)-4-chloro-β-(3-fluorophenyl)-N-(5-fluoro-4-{2-[(2S)-1-(phenylsulfonyl)piperazin-2-yl]ethyl}pyridin-3-yl)-Nα-(methoxycarbonyl)-L-phenylalaninamide] | 6.5 nM
COC(=O)N[C@H](C(=O)Nc1cncc(F)c1CC[C@H]1CNCCN1S(=O)(=O)c1ccccc1)C(c1cccc(F)c1)c1cccc(F)c1 [Example 54, 3-fluoro-β-(3-fluorophenyl)-N-(5-fluoro-4-{2-[(2S)-1-(phenylsulfonyl)piperazin-2-yl]ethyl}pyridin-3-yl)-Nα-(methoxycarbonyl)-L-phenylalaninamide] | 9.8 nM
COC(=O)N[C@H](C(=O)Nc1cccc(F)c1CC[C@H]1CNCCN1S(=O)(=O)c1ccccc1)[C@@H](c1ccc(Cl)cc1)c1cncc(F)c1 [Example 55, (βS)-4-chloro-N-(3-fluoro-2-{2-[(2S)-1-(phenylsulfonyl)piperazin-2-yl]ethyl}phenyl)-β-(5-fluoropyridin-3-yl)-Nα-(methoxycarbonyl)-L-phenylalaninamide] | 9 nM
COC(=O)N[C@H](C(=O)Nc1cncc(F)c1CC[C@H]1CNCCN1S(=O)(=O)c1ccccc1)[C@@H](c1ccc(Cl)cc1)c1cccc(OC(F)(F)F)c1 [Example 56, (βS)-4-chloro-N-(5-fluoro-4-{2-[(2S)-1-(phenylsulfonyl)piperazin-2-yl]ethyl}pyridin-3-yl)-Nα-(methoxycarbonyl)-β-[3-(trifluoromethoxy)phenyl]-L-phenylalaninamide] | 13 nM
COC(=O)N[C@H](C(=O)Nc1cncc(F)c1CC[C@H]1CNCCN1S(=O)(=O)c1ccccc1)[C@@H](c1ccc(Cl)cc1)c1cc(F)cc(F)c1 [Example 57, (βS)-4-chloro-β-(3,5-difluorophenyl)-N-(5-fluoro-4-{2-[(2S)-1-(phenylsulfonyl)piperazin-2-yl]ethyl}pyridin-3-yl)-Nα-(methoxycarbonyl)-L-phenylalaninamide] | 7.7 nM
COC(=O)N[C@H](C(=O)Nc1cccc(F)c1CC[C@H]1CNCCN1S(=O)(=O)c1ccccc1)[C@@H](c1ccc(Cl)cc1)c1cccc(OC(F)(F)F)c1 [Example 58, (βS)-4-chloro-N-(3-fluoro-2-{2-[(2S)-1-(phenylsulfonyl)piperazin-2-yl]ethyl}phenyl)-Nα-(methoxycarbonyl)-β-[3-(trifluoromethoxy)phenyl]-L-phenylalaninamide] | 42 nM
COC(=O)N[C@H](C(=O)Nc1cccc(F)c1CC[C@H]1CNCCN1S(=O)(=O)c1ccccc1)[C@@H](c1ccc(Cl)cc1)c1cc(F)cc(F)c1 [Example 59, (βS)-4-chloro-β-(3,5-difluorophenyl)-N-(3-fluoro-2-{2-[(2S)-1-(phenylsulfonyl)piperazin-2-yl]ethyl}phenyl)-Nα-(methoxycarbonyl)-L-phenylalaninamide] | 29 nM
O=C(CC(c1ccc(F)cc1)c1ccc(F)cc1)Nc1cccc(F)c1CC[C@H]1CNCCN1S(=O)(=O)c1ccccc1 [Example 60, 3,3-bis(4-fluorophenyl)-N-(3-fluoro-2-{2-[(2S)-1-(phenylsulfonyl)piperazin-2-yl]ethyl}phenyl)propanamide] | 27 nM
